Our source for the T/C values is PubChem BioAssay AID248 (DTP/NCI, 2004).

Values joined by “and” are separate entries in the source; they are usually repeats but may differ in a detail not shown here. Identical values can stand only once. Inconclusive results and toxic doses are left out.

For the assay, the system named is L1210 leukemia ip in BDF1 mice, survival T/C. Kind of assay: NCI In Vivo Anticancer Drug Screen. Data for tumor model L1210 Leukemia (intraperitoneal) in B6D2F1 (BDF1) mice. The note with it: endpoint: mean survival time, higher = longer survival. Put shortly:
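Ratio derived from survival: compound-dosed mice over vehicle-dosed mice, all bearing a transplantable tumor.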

The mark [1] stands for this setting: dose: 25.0 mg/kg/injection, schedule: Q01DX009 (ip), vehicle: saline with Tween-80.
The mark [2] stands for this setting: dose: 100.0 mg/kg/injection, schedule: Q04DX003 (ip), vehicle: saline.
Where [3] appears, read: dose: 50.0 mg/kg/injection, schedule: Q01DX009 (ip), vehicle: saline with Tween-80.
Setting [4] is: dose: 100.0 mg/kg/injection, schedule: Q01DX009 (ip), vehicle: saline with Tween-80.

Turning to `N=C(N)Cc1ccc(NC(=O)c2ccc(C(=O)Nc3ccc(CC(=N)N)cc3)cc2)cc1`, the T/C is 108 % of control (dose: 3.75 mg/kg/injection, schedule: Q01DX Z (ip), vehicle: methylcellulose (MC)); 89 % of control (dose: 3.75 mg/kg/injection, schedule: Q01DX Z (ip), vehicle: saline); 108 % of control (dose: 7.5 mg/kg/injection, schedule: Q01DX Z (ip), vehicle: methylcellulose (MC)); 155 % of control (dose: 15.0 mg/kg/injection, schedule: Q01DX Z (ip), vehicle: saline); 105 % of control (dose: 15.0 mg/kg/injection, schedule: Q01DX Z (oral), vehicle: saline); 171 % of control (dose: 16.5 mg/kg/injection, schedule: Q01DX009 (ip), vehicle: saline with Tween-80). Besides, the T/C reads like this: (dose: 22.0 mg/kg/injection, schedule: Q01DX001 (ip), vehicle: carboxymethylcellulose (CMC)) 107 % of control and 109 % of control; under setting [1], 219 % of control; (dose: 25.0 mg/kg/injection, schedule: Q01DX009 (ip), vehicle: saline) 174 % of control; (dose: 25.0 mg/kg/injection, schedule: Q04DX003 (ip), vehicle: saline) 107 % of control; (dose: 30.0 mg/kg/injection, schedule: Q01DX Z (ip), vehicle: methylcellulose (MC)) 116 % of control; (dose: 30.0 mg/kg/injection, schedule: Q01DX Z (ip), vehicle: saline) 103 % of control and 113 % of control. For the same compound, the T/C by setting is: (dose: 30.0 mg/kg/injection, schedule: Q01DX Z (oral), vehicle: saline) 102 % of control; (dose: 33.0 mg/kg/injection, schedule: Q01DX001 (ip), vehicle: carboxymethylcellulose (CMC)) 112 % of control; (dose: 33.0 mg/kg/injection, schedule: Q04DX003 (ip), vehicle: saline) 107 % of control; (dose: 37.5 mg/kg/injection, schedule: Q01DX009 (ip), vehicle: saline with Tween-80) 120 % of control; (dose: 50.0 mg/kg/injection, schedule: Q01DX001 (ip), vehicle: carboxymethylcellulose (CMC)) 117 % of control; (dose: 60.0 mg/kg/injection, schedule: Q01DX Z (oral), vehicle: saline) 108 % of control and 109 % of control. The T/C runs as follows: (dose: 75.0 mg/kg/injection, schedule: Q04DX003 (ip), vehicle: saline) 183 % of control; under setting [2], 120 % of control; (dose: 120.0 mg/kg/injection, schedule: Q01DX Z (oral), vehicle: saline) 103 % of control and 108 % of control; (dose: 240.0 mg/kg/injection, schedule: Q01DX Z (oral), vehicle: saline) 112 % of control; (dose: 480.0 mg/kg/injection, schedule: Q01DX Z (oral), vehicle: saline) 106 % of control.

`O=C(CC(O)(C(F)(F)Cl)C(F)(F)Cl)c1cccc([N+](=O)[O-])c1`: the T/C is, setting by setting: under setting [3], 98 % of control; (dose: 50.0 mg/kg/injection, schedule: Q04DX003 (ip), vehicle: saline with Tween-80) 98 % of control; under setting [4], 98 % of control; (dose: 100.0 mg/kg/injection, schedule: Q04DX003 (ip), vehicle: saline with Tween-80) 98 % of control; (dose: 200.0 mg/kg/injection, schedule: Q01DX009 (ip), vehicle: saline with Tween-80) 95 % of control; (dose: 200.0 mg/kg/injection, schedule: Q04DX003 (ip), vehicle: saline with Tween-80) 98 % of control. The T/C (dose: 400.0 mg/kg/injection, schedule: Q04DX003 (ip), vehicle: saline with Tween-80) is 89 % of control.

With `OCC1OC(Oc2ccccc2)C(O)C(O)C1O` (stereo not given), the T/C is 96 % of control under setting [2]; 105 % of control (dose: 200.0 mg/kg/injection, schedule: Q04DX003 (ip), vehicle: saline); 100 % of control (dose: 400.0 mg/kg/injection, schedule: Q04DX003 (ip), vehicle: saline).

For `O=C(Nc1ccccc1)OCC(F)(F)F`, the T/C was 105 % of control (dose: 100.0 mg/kg/injection, schedule: Q04DX002 (ip), vehicle: gum acacia); 108 % of control (dose: 200.0 mg/kg/injection, schedule: Q04DX002 (ip), vehicle: gum acacia); 101 % of control (dose: 400.0 mg/kg/injection, schedule: Q04DX002 (ip), vehicle: gum acacia).

Consider `Oc1ccc2cc(Br)ccc2c1-c1c(O)ccc2cc(Br)ccc12`, for which the T/C (dose: 100.0 mg/kg/injection, schedule: Q04DX002 (ip), vehicle: saline with Tween-80) is 97 % of control; the T/C (dose: 200.0 mg/kg/injection, schedule: Q04DX002 (ip), vehicle: saline with Tween-80) is 94 % of control; the T/C (dose: 400.0 mg/kg/injection, schedule: Q04DX002 (ip), vehicle: saline with Tween-80) was 87 % of control.

On to `COc1cc(C)c(C)cc1C(C)C(C)C(=O)O` (stereo not given), for which the T/C (dose: 100.0 mg/kg/injection, schedule: Q04DX003 (ip), vehicle: Klucel (hydroxypropylcellulose) (HPC)) was 97 % of control; the T/C (dose: 200.0 mg/kg/injection, schedule: Q04DX003 (ip), vehicle: Klucel (hydroxypropylcellulose) (HPC)) is 98 % of control; the T/C (dose: 400.0 mg/kg/injection, schedule: Q04DX003 (ip), vehicle: Klucel (hydroxypropylcellulose) (HPC)) was 98 % of control.

As for `Nc1nc(N)c(-c2ccc(Cl)cc2)c(C(=O)O)n1`, the T/C was 90 % of control under setting [1]; 97 % of control under setting [3]; 93 % of control and 103 % of control under setting [4].

Regarding `Nc1nc(N)c2nc(CNc3ccc(C(=O)NC(CCC(=O)O)C(=O)O)cc3)cnc2n1` (stereo not given), the T/C was 170 % of control (dose: 0.02 mg/kg/injection, schedule: Q01DX Z (ip), vehicle: saline); 122 % of control (dose: 0.02 mg/kg/injection, schedule: Q01DX Z (sc), vehicle: saline); 118 % of control (dose: 0.03 mg/kg/injection, schedule: Q01DX Z (ip), vehicle: saline); 114 % of control (dose: 0.05 mg/kg/injection, schedule: Q01DX006 (iv), vehicle: saline); 98 % of control and 112 % of control (dose: 0.05 mg/kg/injection, schedule: Q01DX010 (ip), vehicle: other); 119 % of control (dose: 0.05 mg/kg/injection, schedule: Q01DX Z (im), vehicle: saline). In addition, the T/C was 105 % of control (dose: 0.06 mg/kg/injection, schedule: Q01DX Z (ip), vehicle: saline); 108 % of control (dose: 0.1 mg/kg/injection, schedule: Q01DX010 (ip), vehicle: other); 113 % of control (dose: 0.1 mg/kg/injection, schedule: Q01DX Z (im), vehicle: saline); 119 % of control (dose: 0.1 mg/kg/injection, schedule: Q01DX Z (ip), vehicle: saline); 154 % of control (dose: 0.2 mg/kg/injection, schedule: Q01DX Z (im), vehicle: saline); 96 % of control and 105 % of control (dose: 0.2 mg/kg/injection, schedule: Q01DX Z (ip), vehicle: saline). For the same compound, the T/C is 119 % of control (dose: 0.2 mg/kg/injection, schedule: Q01DX Z (oral), vehicle: saline); 101 % of control and 114 % of control (dose: 0.2 mg/kg/injection, schedule: Q01DX Z (sc), vehicle: saline); 162 % of control (dose: 0.4 mg/kg/injection, schedule: Q01DX010 (ip), vehicle: other); 111 % of control and 114 % of control (dose: 0.5 mg/kg/injection, schedule: Q01DX001 (ip), vehicle: saline); 106 % of control (dose: 0.5 mg/kg/injection, schedule: Q01DX Z (oral), vehicle: saline); 103 % of control (dose: 0.5 mg/kg/injection, schedule: Q01DX Z (sc), vehicle: saline). Also, the T/C was 115 % of control (dose: 1.0 mg/kg/injection, schedule: Q01DX001 (ip), vehicle: saline); 94 % of control (dose: 1.0 mg/kg/injection, schedule: Q01DX Z (ip), vehicle: saline); 117 % of control and 121 % of control (dose: 2.0 mg/kg/injection, schedule: Q01DX001 (ip), vehicle: saline); 106 % of control and 124 % of control (dose: 16.0 mg/kg/injection, schedule: Q01DX001 (ip), vehicle: saline); 96 % of control and 120 % of control (dose: 32.0 mg/kg/injection, schedule: Q01DX001 (ip), vehicle: saline); 105 % of control (dose: 64.0 mg/kg/injection, schedule: Q01DX001 (ip), vehicle: saline). Further, the T/C was 105 % of control and 86 % of control (dose: 128.0 mg/kg/injection, schedule: Q01DX001 (ip), vehicle: saline); 100 % of control (dose: 256.0 mg/kg/injection, schedule: Q01DX001 (ip), vehicle: saline).

For the compound `OCC(O)C(O)C(O)C(O)C(c1ccc(Br)cc1)c1ccc(Br)cc1` (stereo not given), the T/C was 106 % of control (dose: 50.0 mg/kg/injection, schedule: Q01DX001 (ip), vehicle: saline); 106 % of control (dose: 100.0 mg/kg/injection, schedule: Q01DX001 (ip), vehicle: saline); 101 % of control (dose: 200.0 mg/kg/injection, schedule: Q01DX001 (ip), vehicle: saline); 98 % of control (dose: 400.0 mg/kg/injection, schedule: Q01DX001 (ip), vehicle: saline).
